Results published in ChEMBL document CHEMBL3885881, “DrugMatrix”.

Organism: Rattus norvegicus
Assay: DrugMatrix - Regimen: Daily Repeat
Assay type: toxicity, organism-based, Sprague-Dawley
Set-up: regimen Daily Repeat, gender Male, age 6-8 weeks
Details: in vivo, po, […], route oral GAVAGE, dose 1.7 mg/Kg, dose level Low; for ABSOLUTE BASOPHIL / ABSOLUTE EOSINOPHIL / ABSOLUTE LYMPHOCYTE / ABSOLUTE MONOCYTE / ABSOLUTE SEGMENTED NEUTROPHIL / BASOPHIL / EOSINOPHIL / ERYTHROCYTE COUNT / HEMATOCRIT / HEMOGLOBIN / LEUKOCYTE COUNT / LYMPHOCYTE / MEAN CORPUSCULAR HEMOGLOBIN / MEAN CORPUSCULAR HEMOGLOBIN CONCENTRATION / MEAN CORPUSCULAR VOLUME / MONOCYTE / NEUTROPHIL / NUCLEATED RED BLOOD CELLS / PLATELET COUNT: tissue Blood; for ALANINE AMINOTRANSFERASE / ALBUMIN / ALKALINE PHOSPHATASE / ASPARTATE AMINOTRANSFERASE / BLOOD UREA NITROGEN / CARBON DIOXIDE / CHLORIDE / CHOLESTEROL / CREATINE PHOSPHOKINASE / CREATININE / GLUCOSE / LACTATE DEHYDROGENASE / LIPASE / PHOSPHORUS / POTASSIUM / SODIUM / TOTAL BILIRUBIN / TOTAL PROTEIN / URIC ACID: tissue Plasma

C#C[C@]1(OC(C)=O)CC[C@H]2[C@@H]3CCC4=CC(=O)CC[C@@H]4[C@H]3CC[C@@]21C [NORETHINDRONE ACETATE]
ABSOLUTE BASOPHIL (72 h, time 3 day): 0 CELLS/uL
ABSOLUTE EOSINOPHIL (72 h, time 3 day): 0 CELLS/uL
ABSOLUTE LYMPHOCYTE (72 h, time 3 day): 14146.67 CELLS/uL
ABSOLUTE MONOCYTE (72 h, time 3 day): 167 CELLS/uL
ABSOLUTE SEGMENTED NEUTROPHIL (72 h, time 3 day): 1486.33 CELLS/uL
BASOPHIL (72 h, time 3 day): 0%
EOSINOPHIL (72 h, time 3 day): 0%
ERYTHROCYTE COUNT (72 h, time 3 day): 5.62 x10E6/uL
HEMATOCRIT (72 h, time 3 day): 33.97%
HEMOGLOBIN (72 h, time 3 day): 13.3 G/DL
LEUKOCYTE COUNT (72 h, time 3 day): 15.8 x10E3/uL
LYMPHOCYTE (72 h, time 3 day): 89.33%
MEAN CORPUSCULAR HEMOGLOBIN (72 h, time 3 day): 23.7 pg
MEAN CORPUSCULAR HEMOGLOBIN CONCENTRATION (72 h, time 3 day): 39.17 G/DL
MEAN CORPUSCULAR VOLUME (72 h, time 3 day): 60.5 fL
MONOCYTE (72 h, time 3 day): 1%
NEUTROPHIL (72 h, time 3 day): 9.67%
NUCLEATED RED BLOOD CELLS (72 h, time 3 day): 0 /100WBC
PLATELET COUNT (72 h, time 3 day): 1255.67 x10E3/uL
ALANINE AMINOTRANSFERASE (72 h, time 3 day): 61.67 u/L
ALBUMIN (72 h, time 3 day): 4.07 G/DL
ALKALINE PHOSPHATASE (72 h, time 3 day): 473.33 u/L
ASPARTATE AMINOTRANSFERASE (72 h, time 3 day): 85 u/L
BLOOD UREA NITROGEN (72 h, time 3 day): 14.33 mg/dL
CARBON DIOXIDE (72 h, time 3 day): 26.67 mmol/L
CHLORIDE (72 h, time 3 day): 99.67 MEQ/L
CHOLESTEROL (72 h, time 3 day): 62.33 mg/dL
CREATINE PHOSPHOKINASE (72 h, time 3 day): 351 u/L
CREATININE (72 h, time 3 day): 0.17 mg/dL
GLUCOSE (72 h, time 3 day): 158.33 mg/dL
LACTATE DEHYDROGENASE (72 h, time 3 day): 371.33 u/L
LIPASE (72 h, time 3 day): 10.33 u/L
PHOSPHORUS (72 h, time 3 day): 12.87 mg/dL
POTASSIUM (72 h, time 3 day): 6.54 MEQ/L
SODIUM (72 h, time 3 day): 143.43 MEQ/L
TOTAL BILIRUBIN (72 h, time 3 day): 0.17 mg/dL
TOTAL PROTEIN (72 h, time 3 day): 5.73 G/DL
URIC ACID (72 h, time 3 day): 1.37 mg/dL
ABSOLUTE BASOPHIL (120 h, time 5 day): 0 CELLS/uL
ABSOLUTE EOSINOPHIL (120 h, time 5 day): 62 CELLS/uL
ABSOLUTE LYMPHOCYTE (120 h, time 5 day): 13760.33 CELLS/uL
ABSOLUTE MONOCYTE (120 h, time 5 day): 100.67 CELLS/uL
ABSOLUTE SEGMENTED NEUTROPHIL (120 h, time 5 day): 1110.33 CELLS/uL
BASOPHIL (120 h, time 5 day): 0%
EOSINOPHIL (120 h, time 5 day): 0.33%
ERYTHROCYTE COUNT (120 h, time 5 day): 5.76 x10E6/uL
HEMATOCRIT (120 h, time 5 day): 36.33%
HEMOGLOBIN (120 h, time 5 day): 14.4 G/DL
LEUKOCYTE COUNT (120 h, time 5 day): 15.03 x10E3/uL
LYMPHOCYTE (120 h, time 5 day): 91.67%
MEAN CORPUSCULAR HEMOGLOBIN (120 h, time 5 day): 25.07 pg
MEAN CORPUSCULAR HEMOGLOBIN CONCENTRATION (120 h, time 5 day): 39.67 G/DL
MEAN CORPUSCULAR VOLUME (120 h, time 5 day): 63.17 fL
MONOCYTE (120 h, time 5 day): 0.67%
NEUTROPHIL (120 h, time 5 day): 7.33%
NUCLEATED RED BLOOD CELLS (120 h, time 5 day): 0 /100WBC
PLATELET COUNT (120 h, time 5 day): 1087.33 x10E3/uL
ALANINE AMINOTRANSFERASE (120 h, time 5 day): 65.33 u/L
ALBUMIN (120 h, time 5 day): 4.13 G/DL
ALKALINE PHOSPHATASE (120 h, time 5 day): 463.33 u/L
ASPARTATE AMINOTRANSFERASE (120 h, time 5 day): 99 u/L
BLOOD UREA NITROGEN (120 h, time 5 day): 16 mg/dL
CARBON DIOXIDE (120 h, time 5 day): 28.67 mmol/L
CHLORIDE (120 h, time 5 day): 98.67 MEQ/L
CHOLESTEROL (120 h, time 5 day): 59.33 mg/dL
CREATINE PHOSPHOKINASE (120 h, time 5 day): 362.33 u/L
CREATININE (120 h, time 5 day): 0.2 mg/dL
GLUCOSE (120 h, time 5 day): 142 mg/dL
LACTATE DEHYDROGENASE (120 h, time 5 day): 548.33 u/L
LIPASE (120 h, time 5 day): 10.33 u/L
PHOSPHORUS (120 h, time 5 day): 12.73 mg/dL
POTASSIUM (120 h, time 5 day): 6.67 MEQ/L
SODIUM (120 h, time 5 day): 145.33 MEQ/L
TOTAL BILIRUBIN (120 h, time 5 day): 0.23 mg/dL
TOTAL PROTEIN (120 h, time 5 day): 5.93 G/DL
URIC ACID (120 h, time 5 day): 1.63 mg/dL
